Literature values, collected in patent publication US20130178535A1, “Acetaminophen Composition” (B. Braun Melsungen AG, priority 2010, published 2013).

CC(=O)Nc1ccc(O)cc1 [paracetamol, N-(4-hydroxyphenyl)ethanamide]
pH at which breakdown (hydrolysis) in aqueous solution is minimal: ~6
